Experiments:
PAO1-L biofilms = assay: Biofilm assay on glass coverslips, GFP-labelled PAO1-L; type: cell-based, Pseudomonas aeruginosa
Protocol: (§1) One of the clinical challenges of P. aeruginosa infections is the difficulty associated with the effective treatment of biofilms due to their high resistance to antibiotics. […] The effect of Ia, with or without tobramycin, on PA14 and PAO1-L biofilms grown on glass coverslips, was determined. […] The experiment was performed using green fluorescent labelled (GFP)-labelled PAO1-L and PA14 strains, grown under four different conditions: (i) no treatment (control); (ii) compound Ia at 8 µM in PA14 and 34 µM in PAO1-L (concentrations equal to 3× IC50); (iii) tobramycin at 100 µg/mL; (iv) Ia and tobramycin, at the same concentrations as (ii) and (iii).
(§2) Biofilms were cultivated on borosilicate glass coverslips in petri dishes. P. aeruginosa strains, PAO1-L and PA14, were labelled by transformation with plasmid pMMG, which constitutively expresses GFP from the Ptac promoter. Labelled strains were grown at 37 °C, for 16 h, in 2 mL RPMI-1640 (Lonza, Slough, UK), supplemented with 20 mM D-glucose (Sigma–Aldrich, Dorset, UK) and 2 µM FeCl3 (Sigma–Aldrich, Dorset, UK). Cultures were diluted 1:100 in fresh medium and allowed to grow for a further 4 h, or until an OD600 of 0.5 was reached. The mid-logarithmic cultures were diluted to an OD600 of 0.01 in 25 mL RPMI, supplemented with glucose and FeCl3, and inoculated into petri dishes containing UV sterilised borosilicate glass coverslips (22 × 22 mm, thickness no1) (VWR, Lutterworth, UK). Bacterial cells were seeded at 37 °C under static conditions for 1.5 h, and compound Ia was added to the culture at a concentration of 34 µM for P. aeruginosa PAO1-L and 8 µM for PA14 before dishes were moved to a shaker at 60 rpm and 37 °C for 15 h to form mature biofilms. Tobramycin and propidium iodide were added to the 15 h-old cultures at concentrations of 100 µg/mL and 2 µM, respectively, followed by further incubation for 4 h. Coverslips were examined under a Laser Scanning Fluorescent Microscope (LSM2, Zeiss, Oberkochen, Germany). Biofilms were visualised using egfp mode at an excitation wavelength of 488nm. Imaging was carried out using Zen 2011 imaging software (Zeiss, Oberkochen, Germany). A total of 5 Z-stacked images were collected per coverslip. Sampling was conducted at random from the central portion of each coverslip. Biomass was calculated using Image J (NIH, Bethesda, MD, USA) and Comstat 2.1. Software package (www.comstat.dk, lyngby, Denmark).

PA14 biofilms = assay: Biofilm assay on glass coverslips, GFP-labelled PA14; type: cell-based, Pseudomonas aeruginosa
Protocol: as §1, §2

[1] = Ia 34 µM, tobramycin 100 µg/mL for 4 h
[2] = Ia 8 µM, tobramycin 100 µg/mL for 4 h

SMILES: O=CN1N=C(c2ccccc2)CC1c1cccc(Nc2ccnc3cc(Cl)ccc23)c1 (stereo not drawn) [Ia]
- Sensitisation of biofilm to tobramycin / effect of combined treatment, PAO1-L (PAO1-L biofilms; Ia 34 µM plus tobramycin 100 µg/mL for 4 h): sensitized the biofilm to tobramycin
- Effect on biofilm biomass, PAO1-L (PAO1-L biofilms; [1]): reducing biomass
- Effect on cell viability in biofilm (propidium iodide), PAO1-L (PAO1-L biofilms; [1]): little impact on cell viability
- Sensitisation of biofilm to tobramycin / effect of combined treatment, PA14 (PA14 biofilms; Ia 8 µM plus tobramycin 100 µg/mL for 4 h): sensitized the biofilm to tobramycin
- Effect on biofilm biomass, PA14 (PA14 biofilms; [2]): reducing biomass
- Effect on cell viability in biofilm (propidium iodide), PA14 (PA14 biofilms; [2]): little impact on cell viability
